Laboratory results reported in the supplement of paper PMC10307832.

Tests used:
Experiment in all cases: relative viability (nuclei count vs DMSO), 5 days (fraction); higher = more cells survive
EPLC-272H = tested on: EPLC-272H
Method in brief: (§1)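 After 5 days of treatment, lung cancer cells in 1536-well plates were fixed and stained in a single step (final 0.05% Triton X-100, 1% formaldehyde, 1 ug/ml Hoechst) and their nuclei counted on 4× images. Treatment had been applied by pin tool the day after seeding as one drug alone or as a fixed anchor-drug dose with five library-drug doses (not always all listed) in √10 steps. Relative viability is the nuclei count of treated wells divided by that of vehicle wells, and values are medians of duplicate plates.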

NCI-H1651 = tested on: NCI-H1651
Method in brief: as §1

NCI-H650 = tested on: NCI-H650
Method in brief: as §1

EMC-BAC-2 = tested on: EMC-BAC-2
Method in brief: as §1

NCI-H2023 = tested on: NCI-H2023
Method in brief: as §1

NCI-H1355 = tested on: NCI-H1355
Method in brief: as §1

UMC-11 = tested on: UMC-11
Method in brief: as §1

HCC-44 = tested on: HCC-44
Method in brief: as §1

SK-MES-1 = tested on: SK-MES-1
Method in brief: as §1

NCI-H2405 = tested on: NCI-H2405
Method in brief: as §1

NCI-H1944 = tested on: NCI-H1944
Method in brief: as §1

NCI-H2085 = tested on: NCI-H2085
Method in brief: as §1

NCI-H1793 = tested on: NCI-H1793
Method in brief: as §1

NCI-H1395 = tested on: NCI-H1395
Method in brief: as §1

LCLC-103H = tested on: LCLC-103H
Method in brief: as §1

NCI-H520 = tested on: NCI-H520
Method in brief: as §1

H3255 = tested on: H3255
Method in brief: as §1

NCI-H322M = tested on: NCI-H322M
Method in brief: as §1

ChaGo-K-1 = tested on: ChaGo-K-1
Method in brief: as §1

NCI-H2087 = tested on: NCI-H2087
Method in brief: as §1

LCLC-97TM1 = tested on: LCLC-97TM1
Method in brief: as §1

HCC-827 = tested on: HCC-827
Method in brief: as §1

With O=C(O)c1ccc(-c2c[nH]c3ncc(-c4ccccc4)cc23)cc1C1CCCC1 + CC(=O)c1c(C)c2cnc(Nc3ccc(N4CCNCC4)cn3)nc2n(C2CCCC2)c1=O [Palbociclib] (partner 0.5 µM) as the compound, how does the relative viability (EPLC-272H; first compound 0.04 µM) read?
The relative viability was 0.337.

What about the relative viability (EPLC-272H; first compound 0.1265 µM) of the same compound?
Its relative viability is 0.332.

And the relative viability (EPLC-272H; first compound 0.4 µM)?
Its relative viability is 0.321.

What about the relative viability (EPLC-272H; first compound 1.265 µM) of the same compound?
Its relative viability is 0.294.

And the relative viability (NCI-H1651; first compound 0.04 µM)?
The relative viability was 0.534.

And the relative viability (NCI-H1651; first compound 0.1265 µM)?
The relative viability was 0.524.

What about the relative viability (NCI-H1651; first compound 0.4 µM) of the same compound?
The relative viability was 0.514.

What about the relative viability (NCI-H1651; first compound 1.265 µM) of the same compound?
The relative viability was 0.475.

And the relative viability (NCI-H650; first compound 0.04 µM)?
Its relative viability is 0.32.

What about the relative viability (NCI-H650; first compound 0.1265 µM) of the same compound?
Its relative viability is 0.344.

What about the relative viability (NCI-H650; first compound 0.4 µM) of the same compound?
The relative viability was 0.312.

And the relative viability (NCI-H650; first compound 1.265 µM)?
The relative viability was 0.279.

What about the relative viability (EMC-BAC-2; first compound 0.04 µM) of the same compound?
Its relative viability is 0.534.

And the relative viability (EMC-BAC-2; first compound 0.1265 µM)?
The relative viability was 0.544.

What about the relative viability (EMC-BAC-2; first compound 0.4 µM) of the same compound?
The relative viability was 0.529.

What about the relative viability (EMC-BAC-2; first compound 1.265 µM) of the same compound?
Its relative viability is 0.519.

What about the relative viability (NCI-H2023; first compound 0.04 µM) of the same compound?
Its relative viability is 0.407.

And the relative viability (NCI-H2023; first compound 0.1265 µM)?
The relative viability was 0.394.

And the relative viability (NCI-H2023; first compound 0.4 µM)?
The relative viability was 0.358.

What about the relative viability (NCI-H2023; first compound 1.265 µM) of the same compound?
Its relative viability is 0.312.

And the relative viability (NCI-H1355; first compound 0.04 µM)?
Its relative viability is 0.393.

And the relative viability (NCI-H1355; first compound 0.1265 µM)?
Its relative viability is 0.406.

And the relative viability (NCI-H1355; first compound 0.4 µM)?
The relative viability was 0.407.

What about the relative viability (NCI-H1355; first compound 1.265 µM) of the same compound?
Its relative viability is 0.395.

And the relative viability (UMC-11; first compound 0.04 µM)?
Its relative viability is 0.286.

What about the relative viability (UMC-11; first compound 0.1265 µM) of the same compound?
Its relative viability is 0.312.

And the relative viability (UMC-11; first compound 0.4 µM)?
Its relative viability is 0.333.

And the relative viability (UMC-11; first compound 1.265 µM)?
The relative viability was 0.332.

And the relative viability (HCC-44; first compound 0.04 µM)?
Its relative viability is 0.967.

And the relative viability (HCC-44; first compound 0.1265 µM)?
The relative viability was 0.938.

What about the relative viability (HCC-44; first compound 0.4 µM) of the same compound?
The relative viability was 0.875.

What about the relative viability (HCC-44; first compound 1.265 µM) of the same compound?
The relative viability was 0.805.

What about the relative viability (SK-MES-1; first compound 0.04 µM) of the same compound?
The relative viability was 0.335.

And the relative viability (SK-MES-1; first compound 0.1265 µM)?
The relative viability was 0.288.

And the relative viability (SK-MES-1; first compound 0.4 µM)?
The relative viability was 0.303.

And the relative viability (SK-MES-1; first compound 1.265 µM)?
The relative viability was 0.265.

And the relative viability (NCI-H2405; first compound 0.04 µM)?
The relative viability was 0.529.

What about the relative viability (NCI-H2405; first compound 0.1265 µM) of the same compound?
Its relative viability is 0.557.

And the relative viability (NCI-H2405; first compound 0.4 µM)?
The relative viability was 0.517.

What about the relative viability (NCI-H2405; first compound 1.265 µM) of the same compound?
Its relative viability is 0.473.

And the relative viability (NCI-H1944; first compound 0.04 µM)?
The relative viability was 0.349.

What about the relative viability (NCI-H1944; first compound 0.1265 µM) of the same compound?
The relative viability was 0.376.

What about the relative viability (NCI-H1944; first compound 0.4 µM) of the same compound?
The relative viability was 0.315.

What about the relative viability (NCI-H1944; first compound 1.265 µM) of the same compound?
Its relative viability is 0.314.

And the relative viability (NCI-H2085; first compound 0.04 µM)?
Its relative viability is 0.448.

And the relative viability (NCI-H2085; first compound 0.1265 µM)?
Its relative viability is 0.476.

And the relative viability (NCI-H2085; first compound 0.4 µM)?
The relative viability was 0.457.

What about the relative viability (NCI-H2085; first compound 1.265 µM) of the same compound?
The relative viability was 0.349.

And the relative viability (NCI-H1793; first compound 0.04 µM)?
The relative viability was 0.248.

And the relative viability (NCI-H1793; first compound 0.1265 µM)?
Its relative viability is 0.338.

What about the relative viability (NCI-H1793; first compound 0.4 µM) of the same compound?
Its relative viability is 0.302.

What about the relative viability (NCI-H1793; first compound 1.265 µM) of the same compound?
The relative viability was 0.31.

What about the relative viability (NCI-H1395; first compound 0.04 µM) of the same compound?
Its relative viability is 0.567.

What about the relative viability (NCI-H1395; first compound 0.1265 µM) of the same compound?
The relative viability was 0.66.

And the relative viability (NCI-H1395; first compound 0.4 µM)?
The relative viability was 0.618.

What about the relative viability (NCI-H1395; first compound 1.265 µM) of the same compound?
Its relative viability is 0.567.

And the relative viability (LCLC-103H; first compound 0.04 µM)?
The relative viability was 0.412.

And the relative viability (LCLC-103H; first compound 0.1265 µM)?
Its relative viability is 0.486.

And the relative viability (LCLC-103H; first compound 0.4 µM)?
The relative viability was 0.465.

And the relative viability (LCLC-103H; first compound 1.265 µM)?
Its relative viability is 0.469.

And the relative viability (NCI-H520; first compound 0.04 µM)?
The relative viability was 0.192.

What about the relative viability (NCI-H520; first compound 0.1265 µM) of the same compound?
The relative viability was 0.217.

What about the relative viability (NCI-H520; first compound 0.4 µM) of the same compound?
Its relative viability is 0.226.

What about the relative viability (NCI-H520; first compound 1.265 µM) of the same compound?
The relative viability was 0.182.

What about the relative viability (H3255; first compound 0.04 µM) of the same compound?
The relative viability was 0.303.

What about the relative viability (H3255; first compound 0.1265 µM) of the same compound?
The relative viability was 0.325.

And the relative viability (H3255; first compound 0.4 µM)?
Its relative viability is 0.286.

And the relative viability (H3255; first compound 1.265 µM)?
Its relative viability is 0.312.

What about the relative viability (NCI-H322M; first compound 0.04 µM) of the same compound?
Its relative viability is 0.466.

And the relative viability (NCI-H322M; first compound 0.1265 µM)?
The relative viability was 0.461.

And the relative viability (NCI-H322M; first compound 0.4 µM)?
Its relative viability is 0.448.

What about the relative viability (NCI-H322M; first compound 1.265 µM) of the same compound?
Its relative viability is 0.461.

What about the relative viability (ChaGo-K-1; first compound 0.04 µM) of the same compound?
The relative viability was 0.958.

What about the relative viability (ChaGo-K-1; first compound 0.1265 µM) of the same compound?
The relative viability was 0.966.

And the relative viability (ChaGo-K-1; first compound 0.4 µM)?
Its relative viability is 0.945.

What about the relative viability (ChaGo-K-1; first compound 1.265 µM) of the same compound?
Its relative viability is 0.834.

What about the relative viability (NCI-H2087; first compound 0.04 µM) of the same compound?
Its relative viability is 0.214.

What about the relative viability (NCI-H2087; first compound 0.1265 µM) of the same compound?
The relative viability was 0.267.

And the relative viability (NCI-H2087; first compound 0.4 µM)?
Its relative viability is 0.214.

What about the relative viability (NCI-H2087; first compound 1.265 µM) of the same compound?
The relative viability was 0.248.

And the relative viability (LCLC-97TM1; first compound 0.04 µM)?
Its relative viability is 0.267.

What about the relative viability (LCLC-97TM1; first compound 0.1265 µM) of the same compound?
Its relative viability is 0.222.

And the relative viability (LCLC-97TM1; first compound 0.4 µM)?
Its relative viability is 0.187.

What about the relative viability (LCLC-97TM1; first compound 1.265 µM) of the same compound?
The relative viability was 0.217.

And the relative viability (HCC-827; first compound 0.04 µM)?
The relative viability was 0.354.

What about the relative viability (HCC-827; first compound 0.1265 µM) of the same compound?
Its relative viability is 0.474.

And the relative viability (HCC-827; first compound 0.4 µM)?
The relative viability was 0.434.

And the relative viability (HCC-827; first compound 1.265 µM)?
Its relative viability is 0.328.
